Assay results reported in patent US9445993B2, “Nanotechnology approach for inhalation therapies” (Rutgers, The State University of New Jersey, priority 2012, dated 2016).

Assays:
[1] = tested on: 84 key genes involved in tissue remodeling; MMP3, CCL12, HIF1A; test: Gene and protein expression in lung tissues (Example 2); assay type: in vivo, mice; details: treatment with PGE2
Protocol: The profiles of the expression of 84 key genes involved in tissue remodeling during wound repair and development of fibrosis were studied in the lung tissues. […] Overexpression of some proteins was confirmed using immunostaining of lung tissue sections (FIG. 13A). In addition to genes included in the mouse fibrosis array, the expression of VEGF and hypoxia inducible factor 1 alpha (HIF1A) proteins was analyzed by immunohistochemistry (FIG. 13A) and Western blotting (FIG. 13B). Instillation of bleomycin led to the overexpression of HIF1A protein (FIGS. 13A and B).

[2] = tested on: IPF initiated by the intratracheal instillation of bleomycin; test: Animal model of IPF and inhalation treatment starting day 15 (Example 2): body and lung weight, hydroxyproline, MRI, histology
Protocol: Healthy 6-8 weeks old SKH1-hr hairless mice of both genders (20-25 g) were obtained from Charles River Laboratories (Wilmington, Mass.). IPF was initiated by the intratracheal instillation of bleomycin at the dose of 1.5 U/kg. Changes in animal body and lung weight, hydroxyproline content in the lung tissue, and lung histology were used as hallmarks of the development of IPF in experimental animals.
Mice were treated separately with three different NLC-based DDS containing PGE2 and siRNA targeted to MMP3, CCL12 and HIF1A mRNA with appropriate controls by inhalation twice a week for three weeks starting 15 days after the bleomycin administration. […] A previously developed instillation unit consisting of a collision nebulizer connected to four-port, nose-only exposure chambers was used for inhalation delivery of NLC-PEG2-siRNA. NLC-based DDS was aerosolized at the flow rate of 2 L/min for ten min. Animal weight was measured daily throughout the study. In vivo imaging was performed twice per week in anesthetized mice during the whole course of the treatment. Optical Imaging (In-Vivo MS FX PRO, IVIS 100) and ultrasound (Vevo 2100 imaging system) was performed to monitor the body distribution of nanoparticles and disease progression, respectively. Animals were treated 6 times (2 times per week) starting from the day 15 after bleomycin instillation.
Expression of genes and proteins involved in the development and compensation of IPF was studied by quantitative RT-PCR (genes), Western blotting and Immunohistochemistry (proteins). In addition, body and organ weights as well as hydroxyproline content in the lungs was monitored. The distribution of osmium-, fluorescent- or tritium-labeled DDS was examined in mouse lungs, heart, liver, spleen, kidneys, and brain using transmission electron and confocal microscopes, optical imaging systems, and a radioactive counter, respectively. Adverse side effects of the treatment were determined by histopathological analysis, apoptosis and necrosis measurement in the healthy organs (heart, liver, spleen, kidneys, and brain).
Changes in animal body and lung weight, hydroxyproline content in the lung tissue and lung histology were used as hallmarks of the development of IPF in experimental animals after the instillation of 1.5 U/kg of bleomycin.

mice = test: Selection of bleomycin dose (animal death after intratracheal instillation); assay type: in vivo; details: observed 21 days
Protocol: (§1) Experiments were performed on healthy 6-8 weeks old SKH1-hr hairless mice (20-25 g) obtained from Charles River Laboratories (Wilmington, Mass.). Veterinary care followed the guidelines described in the guide for the care and use of laboratory animals (AAALAC) as well as the requirements established by the animal protocol approved by the Rutgers Institutional Animal Care and Use Committee (IACUC).
(§2) All mice were contained in micro-isolated cages under pathogen-free conditions at room temperature with humidity of 40±15% and light/dark cycle on 12 h per day in the animal maintenance facility. Mice were anesthetized via intraperitoneal instillation with 80 mg/kg ketamine and 10-12 mg/kg xylazine (Butler-Schine Animal Health Inc, Dublin, Ohio). Once anesthetized, the mouse was placed on the tilting rodent work stand (Hallowell EMC, Pittsfield, Mass.) in supine position and restrained in position by an incisor loop. The tongue was then extruded via rotation with a cotton tip applicator. The larynx was visualized using a modified 4 mm ear speculum attached to an operating head of an ophthalmoscope (Wellch Allyn, Skaneateles Falls, N.Y.). The modified speculum, acting in an inverted fashion as a laryngoscope blade, provided dorsal displacement of the tongue and magnification of the laryngeal opening as described.
Bleomycin was administered intratracheally in doses of 0.5, 1.0, 1.5, and 2.0 U/kg. Mice were treated with liposomal PGE2 by inhalation twice a week for three weeks starting with the second day after the bleomycin administration. […] Animal weight was measured daily throughout the study. After the three weeks treatment period, all mice were anesthetized with isoflurane and euthanized. The organs (lungs, heart, liver, kidney, spleen, and brain) were excised and used for further analysis.
In order to select an appropriate dose of bleomycin, four doses (0.5; 1.0; 1.5; 2.0 U/kg) were tested. […] The dose of 2.0 U/kg led to the death of 100% of animals within 21 days (FIG. 1A). The doses of 1.5 and 1.0 U/kg induced death of 50 and 25% of animals, respectively.

[3] = tested on: hydroxyproline content in the lungs; test: Hydroxyproline assay in lungs (Example 1); assay type: in vivo, mice; details: three weeks after instillation of 1.5 U/kg bleomycin
Protocol: […] Homogenized lung tissues were hydrolyzed in 12 N HCl at 120° C. for 3 h in pressure-tight vials. After this, 10 μl of samples were allocated to a 96 well plate and dried under vacuum. Oxidation buffer with chloramine T was added to each sample at room temperature for 5 min, and the samples were incubated in dimethylaminobenzaldehyde (DMAB) reagent for 90 min at 60° C. Samples were cooled and the absorbance at 560 nm was measured using an automated microplate plate reader. Six concentrations of hydroxyproline standard dilutions (from 0 to 1 μg/well) were used to plot a hydroxyproline standard curve.

lung tissue = test: Histopathologic analysis of lungs (Example 1); assay type: in vivo, mice; details: 1.5 U/kg bleomycin instilled
Source text: At the end of the experiments, the animals were euthanized, the lungs were extracted and immediately fixed in 10% phosphate-buffered formalin. Samples were subsequently dehydrated and embedded in Paraplast®. Five-micrometer sections were cut and stained with hematoxylin-eosin as previously described and analyzed.

[4] = tested on: lung fibrosis induced by intratracheal instillation of bleomycin; test: Animal model of IPF and inhalation treatment: body mass and mortality (Example 1); assay type: in vivo, mice; details: three weeks after instillation of 1.5 U/kg bleomycin
Protocol: as §1
as §2, with “The modified speculum, acting in an inverted fashion as a laryngoscope blade, provided dorsal displacement of the tongue and magnification of the laryngeal opening as described.” left out
Bleomycin was administered intratracheally in doses of 0.5, 1.0, 1.5, and 2.0 U/kg. […] Animal weight was measured daily throughout the study. […]

[5] = PGE2 delivered by liposomes or NLC by inhalation, from day 15
[6] = 15 days after instillation of 1.5 U/kg bleomycin

| Compound | expression of MMP3, CCL12 and HIF1A versus control after treatment [1] | signs of IPF and lung tissue injury detected by MRI and histopathology ([2]; PGE2 alone delivered locally into the lungs) | hydroxyproline content in the lungs of treated animals versus healthy control ([2]; PGE2 by inhalation, from day 15) | body weight of experimental animals [2, 5] | lung weight [2, 5] | therapeutic effects of PGE2 delivered by liposomes versus NLC ([2]; inhalation) | animal death (mice; bleomycin 0.5 U/kg intratracheally) | death of animals (mice; bleomycin 1.0 U/kg intratracheally) [%] | death of animals (mice; bleomycin 1.5 U/kg intratracheally) [%] | death of animals within 21 days (mice; bleomycin 2.0 U/kg intratracheally) [%] | increase of hydroxyproline concentration in the lungs [3] [times] | lung histology (lung tissue) | body mass of animals, % of its initial value [4] [%] | body weight of animals, % of its initial value [2, 6] [%] | increase of hydroxyproline concentration in the lungs [2, 6] [fold] | lung weight [2, 6] | lung histology ([2]; bleomycin 1.5 U/kg) |
| --- | --- | --- | --- | --- | --- | --- | --- | --- | --- | --- | --- | --- | --- | --- | --- | --- | --- |
| CCCCC[C@H](O)/C=C/[C@H]1[C@H](O)CC(=O)[C@@H]1C/C=C\CCCC(=O)O [PGE2, Prostaglandin E2] | still substantially higher when compared with control | substantially less pronounced | still significantly higher | decreased the body weight of experimental animals induced by bleomycin | had a little effect on the lung weight | comparable |  |  |  |  |  |  |  |  |  |  |  |
| bleomycin |  |  |  |  |  |  | did not induce animal death | 25 | 50 | 100 | 2.6 | consolidation of the pulmonary architecture, with early fibrotic thickening of the alveolar walls, ablation of the alveolar space, and edema | 75 | 75 | 2.6 | significantly increased | consolidation of the pulmonary architecture, with early fibrotic thickening of the alveolar walls, ablation of the alveolar space, and edema |
